Earlier results, collected in patent US20110223150A1, “Neutraceutical-Based Topical Anxiolytic Agent and Method of Use” (priority 2009, published 2011).
Like-named read-outs stand apart in the source and are kept apart here.

How the values were obtained:
[1] = system: rats; settings: chronic administration of 50 mg/kg
[2] = system: mice; settings: i.p. in mice
[3] = system: rats
[4] = system: spontaneously hypertensive rats (SHR); settings: dose-dependent
[5] = system: alpha brain waves

NCC(CC(=O)O)c1ccccc1 (stereo not drawn) [Phenibut, beta-phenyl-gamma-aminobutyric acid]
teratogenic effects [1]: did not have teratogenic effects
LD50 [2]: 900 mg/kg
LD50 ([3]; i.p. in rats): 700 mg/kg
LD50 ([3]; rats, method of administration not given): 1000 mg/kg

gamma-ethylamino-L-glutamic acid [L-theanine]
blood pressure effect [4]: blood pressure lowering effect
time until alpha waves were observed (occipital and parietal regions) ([5]; 50 or 200 mg of L-theanine): ≤ 40 min
time to sense of relaxation after ingestion ([5]; after ingestion): 30 to 40 min
time after which intensity of alpha waves was detectable ([5]; separate study, dose dependent, 200 mg significant over controls): 30 min

NC(=O)CC[C@H](N)C(=O)O [L-glutamine]
blood pressure effect [4]: did not exhibit an anti-hypertensive effect
